This passage reports IC50 results from article PMC10011747, “Targeting androgen receptor and the variants by an orally bioavailable Proteolysis Targeting Chimeras compound in castration resistant prostate cancer” (eBioMedicine, 2023).

Common to all, as to type: cell-based
Test [1] has as its system LNCaP cells. The experiment in a line: alamarBlue cell viability, LNCaP. To be noted: Homo sapiens, 168 h, 7 days treatment, normal hormone condition. As to the method:
(§1) Cells were seeded in triplicate in 96-well plates 1 day prior to drug treatment for all assays. For viability test and IC50 assessment, the alamarBlue™ Cell Viability Reagent (Thermo Fisher Scientific) was added to cells 7 days after PROTAC treatment, followed by fluorescence detection as the manufacturer instructed. The IC50 was calculated by dose-inhibition regression. For proliferation monitoring, 2, 4, 6 and 8 days after PROTAC treatment (day 0), viable cells were detected by MTT Cell Proliferation Kit I (Sigma–Aldrich) according to the manufacturer's instructions. Cellular caspase activity was measured by Caspase-Glo 3/7 Assay System (Promega) 1 or 2 days after the drug treatment.

For test [2], the system named is VCaP cells. The experiment in a line: alamarBlue cell viability, VCaP. The following applies: Homo sapiens, 168 h, 7 days treatment, normal hormone condition. As to the method:
as §1

Test [3] has as its system LNCaP, CWR22Rv1 and VCaP cells. The test can be described thus: alamarBlue cell viability, all three cell lines. The following applies: Homo sapiens, 168 h; 7 days treatment; read-out: IC50 cell viability, range in all three cell lines. The method, then:
as §1

The subject of test [4] is CWR22Rv1 cells. The test can be described thus: alamarBlue cell viability, CWR22Rv1. To be noted: Homo sapiens, CWR22Rv1, 168 h; 7 days treatment, normal hormone condition. As to the method:
as §1

On to `Cc1ncsc1-c1ccc(CNC(=O)[C@@H]2C[C@H](O)CN2C(=O)[C@@H](NC(=O)COCCCCOc2ccc(C3CCN(C4=Nn5c(nnc5C(F)(F)F)CC4)CC3)cc2)C(C)(C)C)cc1` [ITRI-90, (2S,4S)-1-((S)-3,3-dimethyl-2-(2-(4-(4-(1-(3-(trifluoromethyl)-7,8-dihydro-[1,2,4]triazolo[4,3-b]pyridazin-6-yl)piperidin-4-yl)phenoxy)butoxy)acetamido)butanoyl)-4-hydroxy-N-(4-(4-methylthiazol-5-yl)benzyl)pyrrolidine-2-carboxamide], for which the IC50 was 6.59 ± 3.13 µM in test [1], 5.45 ± 1.74 µM in test [2], 3 to 6 µM in test [3] and 4.13 ± 1.93 µM in test [4].

With `O=C1CCC(N2Cc3c(NC(=O)COCCCCOc4ccc(C5CCN(C6=Nn7c(nnc7C(F)(F)F)CC6)CC5)cc4)cccc3C2=O)C(=O)N1` (stereo not drawn) [ITRI-126, N-(2-(2,6-dioxopiperidin-3-yl)-1-oxoisoindolin-4-yl)-2-(4-(4-(1-(3-(trifluoromethyl)-7,8-dihydro-[1,2,4]triazolo[4,3-b]pyridazin-6-yl)piperidin-4-yl)phenoxy)butoxy)acetamide], the IC50 is 0.464 ± 0.093 µM in test [1], 0.448 ± 0.154 µM in test [2], 0.07 to 0.4 µM in test [3] and 0.071 ± 0.017 µM in test [4].

As to `Cc1ncsc1-c1ccc(CNC(=O)[C@@H]2C[C@H](O)CN2C(=O)[C@@H](NC(=O)COCCCCCCOc2ccc(C3CCN(C4=Nn5c(nnc5C(F)(F)F)CC4)CC3)cc2)C(C)(C)C)cc1` [ITRI-125, (2S,4S)-1-((S)-3,3-dimethyl-2-(2-(6-(4-(1-(3-(trifluoromethyl)-7,8-dihydro-[1,2,4]triazolo[4,3-b]pyridazin-6-yl)piperidin-4-yl)phenoxy)hexyloxy)acetamido)butanoyl)-4-hydroxy-N-(4-(4-methylthiazol-5-yl)benzyl)pyrrolidine-2-carboxamide], the IC50 in test [1] was 6.36 ± 2.1 µM; in test [2] it was 3.06 ± 0.936 µM; in test [3], 3 to 6 µM; in test [4], 6.92 ± 6.23 µM.
